Series [1] has as its system axenic Leishmania donovani MHOM-ET-67/L82 amastigotes. In words: In vitro antiprotozoal assay, axenic amastigotes. Type of series: cell-based. As to conditions: axenic amastigotes; read-out: L.don.ax. IC50.
Experimental: (§1) The testing of the inventive compounds against Leishmania donovani (strain MHOM/ET/67/L82) was performed in 96 well plates at concentrations in serial dilutions. Tests were done in triplicate.
The subject of series [2] is intracellular Leishmania donovani MHOM-ET-67/L82 amastigotes. The experiment in a line: In vitro antiprotozoal assay, intracellular amastigotes. It is filed as cell-based. Particulars: intracellular amastigotes; read-out: L.don.InMac IC50.
Experimental: as §1
Series [3] is described as follows: Cytotoxicity assay (Alamar Blue) on L6-cells. It is filed as cell-based, rat. Particulars: rat. Here is the method: Tests were done in triplicate.
The plates were incubated for additional 2 h.
For orientation: Resazurin is reduced to fluorescent resorufin, in cell work by metabolically active cells.

Square brackets hold non-standard residues; d marks the D form. Peptide text beside a SMILES is read from it. * marks the point of attachment. Benzoyl(4-CF3) = O=C(c1ccc(C(F)(F)F)cc1)*; NH((S)CH(Me)CH2NMe2) = C[C@@H](CN(C)C)N*; NH(1-CH2NMe2-cBu) = CN(C)CC1(N*)CCC1; Benzoyl(4-OMe) = COc1ccc(C(=O)*)cc1; Gly(octyl) = CCCCCCCC[C@H](N)C(=O)O; Oxazole4CO(2-Me) = Cc1nc(C(=O)*)co1; Benzoyl(4-F) = O=C(c1ccc(F)cc1)*; hCha = N[C@@H](CCC1CCCCC1)C(=O)O; Aoc(2) = CCCCCC[C@H](N)C(=O)O; X7 = O=C(c1ccc2[nH]ccc2c1)*; X3 = C[C@@H](CN1CCOCC1)N*; X5 = O=C(C1CCc2ccccc2C1)*; X9 = O=C(c1ccc2ocnc2c1)*; Aib = CC(C)(N)C(=O)O; βAla = NCCC(=O)O; tBu = CC(C)(C)*

As a reminder, the IC50 is the concentration that gives 50% inhibition. With `CCCCCCCC[C@H](NC(=O)[C@@H]1CCCN1C(=O)C1CCc2ccccc2C1)C(=O)N[C@@H](CC(C)C)C(=O)NC(C)(C)C(=O)N[C@@H](CC(C)C)C(=O)N[C@@H](CC(C)C)C(=O)NC(C)(C)C(=O)NC(C)(C)C(=O)NCCC(=O)N[C@@H](C)CN(C)C` (stereo partly drawn) [Compound 5910, (2S)—N-[(1S)-1-[(1-{[(1S)-1-{[(1S)-1-{[1-({1-[(2-{[(2S)-1-(dimethylamino)propan-2-yl]carbamoyl}ethyl)carbamoyl]-1-methylethyl}carbamoyl)-1-methylethyl]carbamoyl}-3-methylbutyl]carbamoyl}-3-methylbutyl]carbamoyl}-1-methylethyl)carbamoyl]-3-methylbutyl]-2-{[(2S)-1-(1,2,3,4-tetrahydronaphthalene-2-carbonyl)pyrrolidin-2-yl]formamido}decanamide] (X5-P[Gly(octyl)]L[Aib]LL[Aib][Aib][βAla]-{NH((S)CH(Me)CH2NMe2)}), the IC50 in series [1] came to 2.1 nM; in series [2], 6.7 nM. The compound further gave an IC50 at 68 h in series [3] of 230 nM.

For `CCCCCCCC[C@H](NC(=O)[C@@H]1CCCN1C(=O)c1ccc2[nH]ccc2c1)C(=O)N[C@@H](CC(C)C)C(=O)NC(C)(C)C(=O)N[C@@H](CC(C)C)C(=O)N[C@@H](CC(C)C)C(=O)NC(C)(C)C(=O)NC(C)(C)C(=O)NCCC(=O)N[C@@H](C)CN(C)C` [Compound 5911, (2S)—N-[(1S)-1-[(1-{[(1S)-1-{[(1S)-1-{[1-({1-[(2-{[(2S)-1-(dimethylamino)propan-2-yl]carbamoyl}ethyl)carbamoyl]-1-methylethyl}carbamoyl)-1-methylethyl]carbamoyl}-3-methylbutyl]carbamoyl}-3-methylbutyl]carbamoyl}-1-methylethyl)carbamoyl]-3-methylbutyl]-2-{[(2S)-1-(1H-indole-5-carbonyl)pyrrolidin-2-yl]formamido}decanamide] (X7-P[Gly(octyl)]L[Aib]LL[Aib][Aib][βAla]-{NH((S)CH(Me)CH2NMe2)}), the figures for the IC50 in series [1] and in series [2] were 14.4 nM and 34.8 nM, respectively. This compound also gave an IC50 at 68 h in series [3] of 457 nM.

Consider `CCCCCCCC[C@H](NC(=O)[C@@H]1CCCN1C(=O)c1ccc(OC)cc1)C(=O)N[C@@H](CC(C)C)C(=O)NC(C)(C)C(=O)N[C@@H](CC(C)C)C(=O)N[C@@H](CC(C)C)C(=O)NC(C)(C)C(=O)NC(C)(C)C(=O)NCCC(=O)N[C@@H](C)CN(C)C` [Compound 5912, (2S)—N-[(1S)-1-[(1-{[(1S)-1-{[(1S)-1-{[1-({1-[(2-{[(2S)-1-(dimethylamino)propan-2-yl]carbamoyl}ethyl)carbamoyl]-1-methylethyl}carbamoyl)-1-methylethyl]carbamoyl}-3-methylbutyl]carbamoyl}-3-methylbutyl]carbamoyl}-1-methylethyl)carbamoyl]-3-methylbutyl]-2-{[(2S)-1-(4-methoxybenzoyl)pyrrolidin-2-yl]formamido}decanamide] ({Benzoyl(4-OMe)}-P[Gly(octyl)]L[Aib]LL[Aib][Aib][βAla]-{NH((S)CH(Me)CH2NMe2)}), for which the IC50 in series [1] was found to be 5.1 nM; in series [2], 12.8 nM. Moreover, in series [3], the IC50 at 68 h was 254 nM.

As for `CCCCCCCC[C@H](NC(=O)[C@@H]1CCCN1C(=O)c1ccc(C(F)(F)F)cc1)C(=O)N[C@@H](CC(C)C)C(=O)NC(C)(C)C(=O)N[C@@H](CC(C)C)C(=O)N[C@@H](CC(C)C)C(=O)NC(C)(C)C(=O)NC(C)(C)C(=O)NCCC(=O)N[C@@H](C)CN(C)C` [Compound 5936, (2S)-N-[(1S)-1-[(1-{[(1S)-1-{[(1S)-1-{[1-({1-[(2-{[(2S)-1-(dimethylamino)propan-2-yl]carbamoyl}ethyl)carbamoyl]-1-methylethyl}carbamoyl)-1-methylethyl]carbamoyl}-3-methylbutyl]carbamoyl}-3-methylbutyl]carbamoyl}-1-methylethyl)carbamoyl]-3-methylbutyl]-2-{[(2S)-1-[4-(trifluoromethyl)benzoyl]pyrrolidin-2-yl]formamido}decanamide] ({Benzoyl(4-CF3)}-P[Gly(octyl)]L[Aib]LL[Aib][Aib][βAla]-{NH((S)CH(Me)CH2NMe2)}), the IC50 in series [1] was 3.3 nM; in series [2] it was less than 33.2 nM. For the same compound, the IC50 at 68 h in series [3] worked out at 411 nM.

On to `CCCCCCCC[C@H](NC(=O)[C@@H]1CCCN1C(=O)c1ccc2ocnc2c1)C(=O)N[C@@H](CC(C)C)C(=O)NC(C)(C)C(=O)N[C@@H](CC(C)C)C(=O)N[C@@H](CC(C)C)C(=O)NC(C)(C)C(=O)NC(C)(C)C(=O)NCCC(=O)N[C@@H](C)CN(C)C` [Compound 5937, (2S)-2-{[(2S)-1-(1,3-benzoxazole-5-carbonyl)pyrrolidin-2-yl]formamido}-N-[(1S)-1-[(1-{[(1S)-1-{[(1S)-1-{[1-({1-[(2-{[(2S)-1-(dimethylamino)propan-2-yl]carbamoyl}ethyl)carbamoyl]-1-methylethyl}carbamoyl)-1-methylethyl]carbamoyl}-3-methylbutyl]carbamoyl}-3-methylbutyl]carbamoyl}-1-methylethyl)carbamoyl]-3-methylbutyl]decanamide] (X9-P[Gly(octyl)]L[Aib]LL[Aib][Aib][βAla]-{NH((S)CH(Me)CH2NMe2)}), for which the IC50 in series [1] was found to be 21.2 nM; in series [2], 58.5 nM. Besides, in series [3], half-maximal inhibition (IC50 at 68 h) was put at 1160 nM.

Regarding `Cc1nc(C(=O)N2CCC[C@H]2C(=O)N[C@@H](CCC2CCCCC2)C(=O)N[C@@H](CC(C)C)C(=O)NC(C)(C)C(=O)N[C@@H](CC(C)C)C(=O)N[C@@H](CC(C)C)C(=O)NC(C)(C)C(=O)NC(C)(C)C(=O)NCCC(=O)N[C@@H](C)CN2CCOCC2)co1` [Compound 6026, (2S)-2-[(2S)-2-{2-[(2S)-2-[(2S)-4-cyclohexyl-2-{[(2S)-1-(2-methyl-1,3-oxazole-4-carbonyl)pyrrolidin-2-yl]formamido}butanamido]-4-methylpentanamido]-2-methylpropanamido}-4-methylpentanamido]-4-methyl-N-[1-methyl-1-({1-methyl-1-[(2-{[(2S)-1-(morpholin-4-yl)propan-2-yl]carbamoyl}ethyl)carbamoyl]ethyl}carbamoyl)ethyl]pentanamide] ({Oxazole4CO(2-Me)}-P[hCha]L[Aib]LL[Aib][Aib][βAla]-X3), the concentration for half-maximal inhibition (IC50) turned out to be 4.2 nM in series [1] and 50.7 nM in series [2]. This compound had an IC50 at 68 h in series [3] of 1580 nM.

`CC(C)C[C@H](NC(=O)[C@H](CCC1CCCCC1)NC(=O)[C@@H]1CCCN1C(=O)c1ccc(F)cc1)C(=O)NC(C)(C)C(=O)N[C@@H](CC(C)C)C(=O)N[C@@H](CC(C)C)C(=O)NC(C)(C)C(=O)NC(C)(C)C(=O)NCCC(=O)N[C@@H](C)CN1CCOCC1` [Compound 6028, (2S)-2-[(2S)-2-{2-[(2S)-2-[(2S)-4-cyclohexyl-2-{[(2S)-1-(4-fluorobenzoyl)pyrrolidin-2-yl]formamido}butanamido]-4-methylpentanamido]-2-methylpropanamido}-4-methylpentanamido]-4-methyl-N-[1-methyl-1-({1-methyl-1-[(2-{[(2S)-1-(morpholin-4-yl)propan-2-yl]carbamoyl}ethyl)carbamoyl]ethyl}carbamoyl)ethyl]pentanamide] ({Benzoyl(4-F)}-P[hCha]L[Aib]LL[Aib][Aib][βAla]-X3): the IC50 was found to be 3.3 nM in series [1] and 418 nM in series [2]. Besides, in series [3], the IC50 at 68 h was determined as 1590 nM.

For the compound `Cc1nc(C(=O)N2CCC[C@H]2C(=O)N[C@@H](COC(C)(C)C)C(=O)N[C@@H](CC(C)C)C(=O)NC(C)(C)C(=O)N[C@@H](CC(C)C)C(=O)N[C@@H](CC(C)C)C(=O)NC(C)(C)C(=O)NC(C)(C)C(=O)NCCC(=O)NC2(CN(C)C)CCC2)co1` [Compound 6780, (2S)-2-[(2S)-2-{2-[(2S)-2-[(2S)-3-(tert-butoxy)-2-{[(2S)-1-(2-methyl-1,3-oxazole-4-carbonyl)pyrrolidin-2-yl]formamido}propanamido]-4-methylpentanamido]-2-methylpropanamido}-4-methylpentanamido]-N-{1-[(1-{[2-({1-[(dimethylamino)methyl]cyclobutyl}carbamoyl)ethyl]carbamoyl}-1-methylethyl)carbamoyl]-1-methylethyl}-4-methylpentanamide] ({Oxazole4CO(2-Me)}-PS(tBu)L[Aib]LL[Aib][Aib][βAla]-{NH(1-CH2NMe2-cBu)}), the IC50 worked out at 166 nM in series [1] and 997 nM in series [2]. Also, in series [3], the IC50 at 68 h came to 8750 nM.

For `CCCCCC[C@H](NC(=O)[C@@H]1CCCN1C(=O)c1coc(C)n1)C(=O)N[C@@H](CC(C)C)C(=O)NC(C)(C)C(=O)N[C@@H](CC(C)C)C(=O)N[C@@H](CC(C)C)C(=O)NC(C)(C)C(=O)NC(C)(C)C(=O)NCCC(=O)NC1(CN(C)C)CCC1` [Compound 6894, (2S)—N-[(1S)-1-[(1-{[(1S)-1-{[(1S)-1-({1-[(1-{[2-({1-[(dimethylamino)methyl]cyclobutyl}carbamoyl)ethyl]carbamoyl}-1-methylethyl)carbamoyl]-1-methylethyl}carbamoyl)-3-methylbutyl]carbamoyl}-3-methylbutyl]carbamoyl}-1-methylethyl)carbamoyl]-3-methylbutyl]-2-{[(2S)-1-(2-methyl-1,3-oxazole-4-carbonyl)pyrrolidin-2-yl]formamido}octanamide] ({Oxazole4CO(2-Me)}-P[Aoc(2)]L[Aib]LL[Aib][Aib][βAla]-{NH(1-CH2NMe2-cBu)}), the IC50 in series [1] worked out at 20.6 nM; in series [2], 383 nM. In series [3], the IC50 at 68 h came out at 4740 nM.

These data come from patent US20240174714A1, “TREATMENT OF SKIN DISORDERS” (priority 2021, published 2024).
